Results from patent US20200062712A1, “ALDEHYDE TRAPPING COMPOUNDS AND USES THEREOF” (Aldeyra Therapeutics, Inc., priority 2016, published 2020).

Experiments:
[1] = Rate of formation of aldehyde (4-HNE) adducts, HPLC product peak over time; details: for Formation of Product 7 Hours (ranking, most effective to least) / Formation of Product 23 Hours (ranking, most effective to least): rank 1 = most effective; for Gradient (rate of product peak increase, formation of aldehyde adduct): best fit line
Procedure: It is not possible to conclude if this is the result of poor dissociation (from cyclodextrin) or poor interaction with the aldehyde. Best fit lines over this period give excellent fit to data. […] It can be used to relatively rank each of the samples examined, including NS2. The data were first evaluated over a 7 h time window.
Similar results were obtained when the window was extended to 23 h. However, two of the compounds yielded lower R. Sq. values in this context.
During this time period 3 of the 5 samples reached equilibrium.

[2] = Consumption of 4-HNE over time, HPLC at 254 nm; details: for Consumption of 4-HNE 7 Hours (ranking, most effective to least): rank 1 = most effective; for Consumption of 4-HNE 23 Hours (ranking, most effective to least): small differences between samples ranking 1-4, essentially identical; for Decrease in HNE versus corresponding increase in adduct: one-week time period
Excerpt: Five of 6 samples show consumption of 4-HNE. One sample (2-(3-aminoquinolin-2-yl)propan-2-ol) overlaps the 4-HNE HPLC peak using the current method. Best fit lines over this period give poorer fit to data than product formation data. Rate of 4-HNE consumption can be used as an approximation of binding kinetics.
The samples appeared to reach equilibrium, with the ongoing decrease in HNE amounts possibly due to another degradative pathway.

[3] = test system: brain slices of B6.129-Aldh5a1tm1Kmg/J (SSADH null) mice; assay: Ex vivo SSADH study: GABA and GHB content of brain slices and incubation media by HPLC; format: cell-based; details: 100 μg/mL, 24 hours incubation; SSADH null mouse brain slices
Procedure: Three and one half (3.5) days after birth, B6.129-Aldh5a1^tm1Kmg/J (SSADH null) mice and wild type (wt) littermates animals were sacrificed and brains were harvested. […] Brain slices and the incubation media (sup) were then analyzed by HPLC for GHB and GABA content.

[4] = Formation of 4-HNE adduct with exemplary compounds (AUC of adduct over time); details: one equivalent of 4-HNE and 2 equivalents of compound; performed twice
Procedure: The ability of exemplary compounds to react with 4-HNE and form the corresponding adduct was measured. All compounds were analyzed by HPLC at 254 nm for their purity prior to the reaction.
Area under the curve (AUC) of each adduct was plotted over time.

abcr−/− knockout mice = format: in vivo; details: 10 mg/kg IP daily for 56 days, p=0.011
Procedure: This experiment is designed to establish proof of concept that chronic intraperitoneal administration of a RAL-trap compound lowers the accumulation rate of A2E in B6:129SvEv-Abcr (abcr−/−) mice.
The study was performed with B6:129SvEv-Abcr (abcr−/−) mice. Treatment groups included 24 mice (males and females) per treatment condition. Each animal was treated with one of the following conditions: • Control: a commercially available compound known clinically to modulate retinal function in humans and known experimentally to form a Schiff base adduct with free RAL, both in vitro and in vivo in animal models. • Vehicle • Compound • Untreated
A third group of animals served as untreated controls and were sacrificed on Day 1 of the study.
The experiments described herein used a variety of biology and biochemistry services. If necessary, non-toxic doses of compounds of the invention, formulated for treatment with an eye drop or other formations, may be established, e.g., in the rabbit with an ocular irritation protocol. […] Light responses were characterized by ERG (Weng, et al., Cell 98:13, 1999). Intracellular A2E concentration of retinal RPE cell extracts were measured using an analytical method such as those described by Karan et al., 2005; Radu et al., 2003; and Parish et al., PNAS 95:14609, 1998.

[5] = 7 h time window, samples in cyclodextrin

Compound	Formation of Product 7 Hours (ranking, most effective to least) [1]	Formation of Product 23 Hours (ranking, most effective to least) [1]	Gradient (rate of product peak increase, formation of aldehyde adduct) [1, 5]	Gradient (rate of product peak increase, formation of aldehyde adduct) ([1]; window extended to 23 h)	Consumption of 4-HNE 7 Hours (ranking, most effective to least) [2]	Consumption of 4-HNE 23 Hours (ranking, most effective to least) [2]	Gradient (rate of 4-HNE consumption) ([2]; 23 h)	Gradient (rate of 4-HNE consumption) ([2]; first 7 h, analysis at 254 nm)	Decrease in HNE versus corresponding increase in adduct [2]	GABA content compared to the controls [3]	GHB content compared to the controls [3]	Formation of the corresponding adduct with 4-HNE [4]	Reduction of formation of A2E compared with vehicle-treated controls (abcr−/− knockout mice)
CC(C)(O)c1nc2cccc(Cl)c2cc1N [Compound I-2, 2-(3-amino-5-chloroquinolin-2yl)propan-2-ol]	6	6	(Gradient 0.86, R.	(Gradient 0.44, R.	3	2	(Gradient −0.04, R.	(Gradient −0.05, R.					
CC(C)(O)c1nc2c(Cl)cccc2cc1N [Compound I-4, 2-(3-amino-8-chloroquinolin-2-yl)propan-2-ol]	5	5	(Gradient 1.18, R.	(Gradient 0.81, R.	5	5	(Gradient −0.02, R.	(Gradient −0.01, R.	decrease in HNE is greater than the corresponding increase in adduct				
CC(C)(O)c1nc2ccccc2cc1N [Compound I-1, 2-(3-aminoquinolin-2-yl)propan-2-ol]	1	1	(Gradient 3.68, R.	(Gradient 1.99, R.						decreased	decreased	formed the corresponding adduct with 4-HNE	
CC(C)(O)c1nc2ccc(Cl)cc2cc1N [NS2, 2-(3-amino-6-chloroquinolin-2-yl)propan-2-ol, reference compound]	2	2	(Gradient 2.22, R.	(Gradient 1.33, R.	1	3	(Gradient −0.04, R.	(Gradient −0.15, R.		decreased	decreased	formed the corresponding adduct with 4-HNE	71%
CC(C)(O)c1nc2cc(Cl)ccc2cc1N [Compound I-3, 2-(3-amino-7-chloroquinolin-2-yl)propan-2-ol]	3	3	(Gradient 2.02, R.	(Gradient 1.21, R.	2	1	(Gradient −0.05, R.	(Gradient −0.06, R.	decrease in HNE is greater than the corresponding increase in adduct				
CC(C)(O)c1nc2ccc(Br)cc2cc1N [Compound I-5, 2-(3-amino-6-bromoquinolin-2-yl)propan-2-ol]	4	4	(Gradient 1.63, R.	(Gradient 1.16, R.	4	4	(Gradient −0.04, R.	(Gradient −0.04, R.					
